Calls of active or inactive are those of the source. No cut-off for these calls is given here.
Key:
[1] = target: T1, Free fatty acid receptor 2 (Homo sapiens) (UniProt O15552); test: Potency index, ratio of CATPB pIC50 to test compound pIC50 for antagonist activity at human FFA2
T1 sequence (whole entry): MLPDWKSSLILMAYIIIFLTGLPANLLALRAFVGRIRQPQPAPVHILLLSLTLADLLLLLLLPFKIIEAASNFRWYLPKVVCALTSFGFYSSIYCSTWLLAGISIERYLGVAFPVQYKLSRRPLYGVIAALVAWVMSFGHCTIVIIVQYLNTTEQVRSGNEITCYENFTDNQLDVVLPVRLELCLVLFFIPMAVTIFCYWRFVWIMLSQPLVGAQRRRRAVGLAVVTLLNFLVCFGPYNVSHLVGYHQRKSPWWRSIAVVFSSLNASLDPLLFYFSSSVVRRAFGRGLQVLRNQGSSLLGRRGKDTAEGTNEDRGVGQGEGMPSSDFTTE

[2] = Chemical stability of compound in PBS buffer at pH 7.4 measured after 10 days by HPLC analysis; assay type: physicochemical; settings: time 10 day, read-out: Stability
[3] = target: T2, Free fatty acid receptor 2 (Homo sapiens, UniProt O15552); test: Inverse agonist activity at human GPR43 expressed in Glosensor cells assessed as increase in forskolin-induced cAMP level preincubated with compound for 5 mins followed by forskolin addition and measured after 15 mins by luminescence based analysis; assay type: functional, cell-based
T2 sequence (O15552 whole entry): T1 sequence (whole entry)

[4] = target: T1, Free fatty acid receptor 2 (Homo sapiens); test: (§1) Antagonist activity at human FFA2 expressed in Flp-In-T-REx-293 cells co-expressing eYFP assessed as inhibition of propionate-induced cAMP accumulation preincubated with compound for 20 mins followed by propionate addition and measured after 25 mins in the presence of forskolin by TR-FRET analysis; assay type: functional, cell-based; settings: time 45.0 min
[5] = target: T1, Free fatty acid receptor 2 (Homo sapiens); test: (§2) Antagonist activity at human FFA2 expressed in Flp-In-T-REx-293 cells co-expressing eYFP assessed as inhibition of [35S]GTPgammaS incorporation preincubated for 15 mins followed by [35S]GTPgammaS addition and measured after 60 min by liquid scintillation spectroscopic analysis; assay type: functional, cell-based; settings: time 75.0 min
[6] = target: T2, Free fatty acid receptor 2; test: as §1; assay type: functional, cell-based
[7] = target: T2, Free fatty acid receptor 2; test: as §2; assay type: functional, cell-based
[8] = system: Neutrophil; test: (§3) Inhibition of propionate-induced respiratory burst in human peripheral neutrophil assessed as effect on luminol-induced chemiluminescence at 0.4 to 1 uM preincubated with compound for 30 mins followed by propionate addition and measured immediately by microplate reader based analysis; assay type: functional, cell-based; settings: dose 0.4-1 µM
[9] = target: T3, Free fatty acid receptor 3 (Homo sapiens) (UniProt O14843); test: as §1, with “FFA3” for “FFA2”, “accumulation at 10 uM” for “accumulation”; assay type: functional, cell-based; settings: time 45.0 min
T3 sequence (whole entry): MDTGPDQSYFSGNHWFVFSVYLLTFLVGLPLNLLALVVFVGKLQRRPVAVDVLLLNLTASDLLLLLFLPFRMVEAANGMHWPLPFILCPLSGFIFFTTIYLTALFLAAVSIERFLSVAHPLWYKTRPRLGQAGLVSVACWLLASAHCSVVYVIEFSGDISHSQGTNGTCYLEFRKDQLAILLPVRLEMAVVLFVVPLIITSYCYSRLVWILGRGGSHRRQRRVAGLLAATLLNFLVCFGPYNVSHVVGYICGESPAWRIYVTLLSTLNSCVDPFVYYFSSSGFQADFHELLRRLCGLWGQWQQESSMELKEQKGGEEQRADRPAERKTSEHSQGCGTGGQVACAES

[10] = system: Neutrophil; test: Inhibition of propionate-induced cell migration in human peripheral neutrophil at 0.4 to 1 uM preincubated with compound for 30 mins followed by propionate addition and measured after 1 hrs by ATPlite luminescence assay; assay type: functional, cell-based; settings: dose 0.4-1 µM, time 90.0 min
[11] = system: Neutrophil; test: Inhibition of fMLP-induced respiratory burst in human peripheral neutrophil at 10 uM; assay type: functional, cell-based
[12] = system: Neutrophil; test: Inhibition of fMLP-induced cell migration in human peripheral neutrophil at 10 uM; assay type: functional, cell-based
[13] = as §3, with “luminol-amplifies” for “luminol-induced”, “chemiluminescence by measuring fold change” for “chemiluminescence”, “analysis relative to CATPB” for “analysis”; assay type: functional; settings: dose 0.4-1 µM, 0.5 h

Cc1cccc(CC(=O)N[C@@H](Cc2ccc(C(F)(F)F)cc2)Cc2nnn[nH]2)c1 showed a Ratio pIC50 [1] of over 10.

O=C(Cc1cncc(Br)c1)N[C@@H](Cc1ccc(C(F)(F)F)cc1)Cc1nnn[nH]1 gave a remaining at 240 h [2] of over 95%.

Compound CC1=C(C(=O)Nc2cc(C)cc(C)c2)C(c2ccc(N(C)C)cc2)NC(=O)N1 (stereo unspecified) has an IC50 [3] of about 10 µM.

With O=C(Cc1cccc(-c2nnn[nH]2)c1)N[C@@H](Cc1ccc(C(F)(F)F)cc1)Cc1nnn[nH]1 the Activity [4] was “inactive” and the Activity [5] was “inactive”.

With O=C(Cc1cnc[nH]1)N[C@@H](Cc1ccc(C(F)(F)F)cc1)Cc1nnn[nH]1 the Activity [4] was “inactive” and the Activity [5] was “inactive”.

N#Cc1cccc(CC(=O)N[C@@H](Cc2ccc(C(F)(F)F)cc2)Cc2nnn[nH]2)c1 showed a pIC50 [6] of over 5 and a pIC50 [7] of over 5.

With COc1cccc(CC(=O)N[C@@H](Cc2ccc(C(F)(F)F)cc2)Cc2nnn[nH]2)c1 the remaining at 240 h [2] was over 95%, the inhibition [8] was “Active” and the Activity [9] was “inactive”. The inhibition [10] was “Active”, the inhibition [11] was “inactive” and the inhibition [12] was “inactive”. For the same compound, the “fold change (FC)” value [13] was 8.

Reference: ChEMBL document CHEMBL5380873, “Discovery of Potent Tetrazole Free Fatty Acid Receptor 2 Antagonists” (J Med Chem, 2023)
